In patent US20220324815A1, “2-PHENOXY-PYRIMIDINE DERIVATIVES AS HERBICIDAL COMPOUNDS” (SYNGENTA CROP PROTECTION AG, priority 2019, published 2022):

Key:
Assay type in all cases: in vivo
Settings in all cases: 250 g/ha unless otherwise stated, evaluated after 13 days, five-point scale
[1] = system: Amaranthus retoflexus (AMARE); assay: Test 1 glasshouse herbicide test, post-emergence application (Table B1)
Procedure: (§1) Seeds of a variety of test species are sown in standard soil in pots (Lolium perenne (LOLPE), Solanum nigrum (SOLNI), Amaranthus retoflexus (AMARE), Setaria faberi (SETFA), Echinochloa crus-galli (ECHCG) and Ipomoea hederacea (IPOHE)). After cultivation for one day (pre-emergence) or after 8 days cultivation (post-emergence) under controlled conditions in a glasshouse (at 24/16° C., day/night; 14 hours light; 65% humidity), the plants are sprayed with an aqueous spray solution derived from the formulation of the technical active ingredient in acetone/water (50:50) solution containing 0.5% Tween 20 (polyoxyethelyene sorbitan monolaurate, CAS RN 9005-64-5). Compounds are applied at 250 g/ha unless otherwise stated. The test plants are then grown in a glasshouse under controlled conditions in a glasshouse (at 24/16° C., day/night; 14 hours light; 65% humidity) and watered twice daily. After 13 days for pre and post-emergence, the test is evaluated for the percentage damage caused to the plant. The biological activities (% phytotoxicity) are shown in Tables B1 and B2 below using a five-point scale (5=81 to 100%; 4=61 to 80%; 3=41 to 60%; 2=21 to 40%; 1=0 to 20%).

[2] = system: Ipomoea hederacea (IPOHE); assay: as above
Procedure: as §1

[3] = system: Setaria faberi (SETFA); assay: as above
Procedure: as §1

[4] = system: Echinochloa crus-galli (ECHCG); assay: as above
Procedure: as §1

[5] = system: Amaranthus retoflexus (AMARE); assay: Test 1 glasshouse herbicide test, pre-emergence application (Table B2)
Procedure: as §1

[6] = system: Ipomoea hederacea (IPOHE); assay: as above
Procedure: as §1

[7] = system: Setaria faberi (SETFA); assay: as above
Procedure: as §1

[8] = system: Echinochloa crus-galli (ECHCG); assay: as above
Procedure: as §1

FC(F)(F)CSc1ccccc1Oc1ncc(Cl)cn1 [Compound A55]
% phytotoxicity AMARE, post-emergence application [1]: 5 (5=81 to 100%) | % phytotoxicity IPOHE, post-emergence application [2]: 4 (4=61 to 80%) | % phytotoxicity SETFA, post-emergence application [3]: 4 (4=61 to 80%) | % phytotoxicity ECHCG, post-emergence application [4]: 4 (4=61 to 80%) | % phytotoxicity AMARE, pre-emergence application [5]: 5 (5=81 to 100%) | % phytotoxicity IPOHE, pre-emergence application [6]: 2 (2=21 to 40%) | % phytotoxicity SETFA, pre-emergence application [7]: 5 (5=81 to 100%) | % phytotoxicity ECHCG, pre-emergence application [8]: 5 (5=81 to 100%)

COCCCSc1ccccc1Oc1ncc(Cl)cn1 [Compound A56]
% phytotoxicity AMARE, post-emergence application [1]: 2 (2=21 to 40%) | % phytotoxicity IPOHE, post-emergence application [2]: 1 (1=0 to 20%) | % phytotoxicity SETFA, post-emergence application [3]: 1 (1=0 to 20%) | % phytotoxicity ECHCG, post-emergence application [4]: 1 (1=0 to 20%) | % phytotoxicity AMARE, pre-emergence application [5]: 2 (2=21 to 40%) | % phytotoxicity IPOHE, pre-emergence application [6]: 2 (2=21 to 40%) | % phytotoxicity SETFA, pre-emergence application [7]: 2 (2=21 to 40%) | % phytotoxicity ECHCG, pre-emergence application [8]: 1 (1=0 to 20%)

Clc1cnc(Oc2ccccc2SCCn2cc(Cl)cn2)nc1 [Compound A57]
% phytotoxicity AMARE, post-emergence application [1]: 5 (5=81 to 100%) | % phytotoxicity IPOHE, post-emergence application [2]: 2 (2=21 to 40%) | % phytotoxicity SETFA, post-emergence application [3]: 4 (4=61 to 80%) | % phytotoxicity ECHCG, post-emergence application [4]: 4 (4=61 to 80%) | % phytotoxicity AMARE, pre-emergence application [5]: 4 (4=61 to 80%) | % phytotoxicity IPOHE, pre-emergence application [6]: 1 (1=0 to 20%) | % phytotoxicity SETFA, pre-emergence application [7]: 4 (4=61 to 80%) | % phytotoxicity ECHCG, pre-emergence application [8]: 3 (3=41 to 60%)

FCCCSc1ccccc1Oc1ncc(Cl)cn1 [Compound A59]
% phytotoxicity AMARE, post-emergence application [1]: 5 (5=81 to 100%) | % phytotoxicity IPOHE, post-emergence application [2]: 2 (2=21 to 40%) | % phytotoxicity SETFA, post-emergence application [3]: 2 (2=21 to 40%) | % phytotoxicity ECHCG, post-emergence application [4]: 4 (4=61 to 80%) | % phytotoxicity AMARE, pre-emergence application [5]: 5 (5=81 to 100%) | % phytotoxicity IPOHE, pre-emergence application [6]: 2 (2=21 to 40%) | % phytotoxicity SETFA, pre-emergence application [7]: 4 (4=61 to 80%) | % phytotoxicity ECHCG, pre-emergence application [8]: 5 (5=81 to 100%)

FCCSc1ccccc1Oc1ncc(Cl)cn1 [Compound A60]
% phytotoxicity AMARE, post-emergence application [1]: 3 (3=41 to 60%) | % phytotoxicity IPOHE, post-emergence application [2]: 2 (2=21 to 40%) | % phytotoxicity SETFA, post-emergence application [3]: 1 (1=0 to 20%) | % phytotoxicity ECHCG, post-emergence application [4]: 1 (1=0 to 20%) | % phytotoxicity AMARE, pre-emergence application [5]: 4 (4=61 to 80%) | % phytotoxicity IPOHE, pre-emergence application [6]: 1 (1=0 to 20%) | % phytotoxicity SETFA, pre-emergence application [7]: 3 (3=41 to 60%) | % phytotoxicity ECHCG, pre-emergence application [8]: 2 (2=21 to 40%)

FC(F)CSc1ccccc1Oc1ncc(Cl)cn1 [Compound A61]
% phytotoxicity AMARE, post-emergence application [1]: 5 (5=81 to 100%) | % phytotoxicity IPOHE, post-emergence application [2]: 2 (2=21 to 40%) | % phytotoxicity SETFA, post-emergence application [3]: 2 (2=21 to 40%) | % phytotoxicity ECHCG, post-emergence application [4]: 2 (2=21 to 40%) | % phytotoxicity AMARE, pre-emergence application [5]: 5 (5=81 to 100%) | % phytotoxicity IPOHE, pre-emergence application [6]: 2 (2=21 to 40%) | % phytotoxicity SETFA, pre-emergence application [7]: 4 (4=61 to 80%) | % phytotoxicity ECHCG, pre-emergence application [8]: 3 (3=41 to 60%)

C=C(C)CSc1ccccc1Oc1ncc(Cl)cn1 [Compound A62]
% phytotoxicity AMARE, post-emergence application [1]: 1 (1=0 to 20%) | % phytotoxicity IPOHE, post-emergence application [2]: 1 (1=0 to 20%) | % phytotoxicity SETFA, post-emergence application [3]: 3 (3=41 to 60%) | % phytotoxicity ECHCG, post-emergence application [4]: 4 (4=61 to 80%) | % phytotoxicity AMARE, pre-emergence application [5]: 1 (1=0 to 20%) | % phytotoxicity IPOHE, pre-emergence application [6]: 1 (1=0 to 20%) | % phytotoxicity SETFA, pre-emergence application [7]: 3 (3=41 to 60%) | % phytotoxicity ECHCG, pre-emergence application [8]: 3 (3=41 to 60%)

CCC(CC)CSc1ccccc1Oc1ncc(Cl)cn1 [Compound A64]
% phytotoxicity AMARE, post-emergence application [1]: 2 (2=21 to 40%) | % phytotoxicity IPOHE, post-emergence application [2]: 2 (2=21 to 40%) | % phytotoxicity SETFA, post-emergence application [3]: 2 (2=21 to 40%) | % phytotoxicity ECHCG, post-emergence application [4]: 1 (1=0 to 20%) | % phytotoxicity AMARE, pre-emergence application [5]: 1 (1=0 to 20%) | % phytotoxicity IPOHE, pre-emergence application [6]: 1 (1=0 to 20%) | % phytotoxicity SETFA, pre-emergence application [7]: 1 (1=0 to 20%) | % phytotoxicity ECHCG, pre-emergence application [8]: 1 (1=0 to 20%)

Clc1cnc(Oc2ccccc2SCc2cccc(Cl)c2)nc1 [Compound A66]
% phytotoxicity AMARE, post-emergence application [1]: 4 (4=61 to 80%) | % phytotoxicity IPOHE, post-emergence application [2]: 2 (2=21 to 40%) | % phytotoxicity SETFA, post-emergence application [3]: 3 (3=41 to 60%) | % phytotoxicity ECHCG, post-emergence application [4]: 4 (4=61 to 80%) | % phytotoxicity AMARE, pre-emergence application [5]: 1 (1=0 to 20%) | % phytotoxicity IPOHE, pre-emergence application [6]: 1 (1=0 to 20%) | % phytotoxicity SETFA, pre-emergence application [7]: 2 (2=21 to 40%) | % phytotoxicity ECHCG, pre-emergence application [8]: 2 (2=21 to 40%)
